Source: patent US20200323780A1, “BILAYER COMBINATION TABLET FOR ORAL ADMINISTRATION CONTAINING TRAMADOL AND CELECOXIB” (KIMS HEALTHCARE CO., LTD., priority 2017, published 2020)
≈ marks a conversion by molar mass, not a printed value. Like-named read-outs stand apart in the source and are kept apart here.

Key:
[1] = cited from earlier work
[2] = cited from earlier work; remark: listed apart in the source
[3] = tested on: conditioned place preference; experiment: Psychological dependence on tramadol by change in conditioned place preference (CPP); type: in vivo, Sprague-Dawley rats; conditions: rats; for Change (min) in the time stayed in non-preferred compartment / Change (min) in the time stayed in preferred compartment: post- vs pre-conditioning, 15 minutes
Experimental: 3. Test for Measuring Psychological Dependence on Tramadol by Assessment of Dependence Potential
In order to measure psychological dependence which is one of the side effects of tramadol, a change in conditioned place preference (CPP) was measured. Conditioned place preference boxes are divided into three boxes, that is, a white box, a black box and a gray box, as shown in FIG. 8. The gray box is a meddle portion in which an animal can choose between the white box and the black box, and the gray box is […]. The black box has a bottom composed of stainless steel rods having a diameter of 4.8 mm and a spacing of 16 mm, and the white box has a bottom composed of stainless steel meshes having a size of 1.25×1.25 cm. The gray box is 12 cm in width, 22 cm in length, and 21 cm in height, and the white box and the black box are 28 cm in width, 21 cm in length, and 21 cm in height.
A series of test procedures are as follows. 5-Week-old male Sprague-Dawley rats (SD rats) were purchased and acclimated for one week. Then, on days 1, 2 and 3 of the test (preconditioning step), in a state in which each rat was not treated with a drug or normal saline for injection, each rat was placed in the gray compartment, and then the door was opened and the time that each rat stayed in each compartment was measured for 15 minutes. Then, based on the mean of the measurement results, the compartment preferred by the rats in the preconditioning step (that is, the compartment in which the rats stayed longer, among the white compartment and the black compartment) was determined.
The next step is a conditioning step corresponding to day 4 to day 11. On days 4, 6, 8 and 10, the corresponding dose of each of the Test Example and the Comparative Examples was administered by intraperitoneal injection to each rat, and after 30 minutes, the rats were adapted to the non-preferred compartment for 30 minutes so as to allow the rats to remember the non-preferred compartment in association with tramadol. On the remaining days 5, 7, 9 and 11, normal saline for injection was administered by intraperitoneal injection to the rats, and after 30 minutes, the rats were adapted to the preferred compartment for 30 minutes so as to allow the rats to remember the preferred compartment in association with the saline solution. On day 12 corresponding to a final step (post-conditioning step), in a state in which neither the drug nor normal saline for injection was administered to the rats, the rats were placed in the gray compartment, and then the door was opened and the time that the rats stayed in each compartment was measured for 15 minutes (see Table 7).
The difference between the time that the rats stayed in the tramadol-associated place (non-preferred compartment) in the post-conditioning step and the time that the rats stayed in the non-preferred compartment in the pre-conditioning step indicates the tramadol-induced change in conditioned place preference, that is, psychological dependence on the drug.
Next, based on the test results, the standardized J-T statistic and the significance level (p-value) were confirmed using a Jonckheere-terpstra test which is a non-parametric statistical method.

[4] = tramadol 2.6 mg/kg intraperitoneal on days 4, 6, 8, 10
[5] = tramadol 3.9 mg/kg intraperitoneal on days 4, 6, 8, 10
[6] = tramadol 10.3 mg/kg intraperitoneal on days 4, 6, 8, 10

## Cc1ccc(-c2cc(C(F)(F)F)nn2-c2ccc(S(N)(=O)=O)cc2)cc1 [Celecoxib]
[1]
  in vivo half-life: about 11 hours
[2]; 20° C.
  solubility in water: 3.3 µg/mL (≈ 8.65 µM)

## COc1cccc(C2(O)CCCCC2CN(C)C)c1 (centres unmarked) [tramadol]
[1]; in vivo
  blood half-life: about 6 hours
[3]; [4]
  Change (min) in the time stayed in non-preferred compartment: 1.3 min
  Change (min) in the time stayed in preferred compartment: -0.17 min
[3]; [5]
  Change (min) in the time stayed in non-preferred compartment: 2.8 min
  Change (min) in the time stayed in preferred compartment: 2.20 min
[3]; [6]
  Change (min) in the time stayed in non-preferred compartment: 3.3 min
  Change (min) in the time stayed in preferred compartment: 3.03 min
[3]; tramadol 37.5 mg (Comparative Example 5) or 100 mg (Comparative Example 6) compared to Test Example 2 (tramadol 25 mg) and Comparative Example 4 (tramadol 0 mg)
  psychological dependence on tramadol (FIG. 9): greatly increased
[2]
  solubility in water: very soluble in water
